Converted amounts (≈) assume the structure as drawn. “And” between values parts separate entries of the source, which are not always exact repeats. Equal entries are not always repeated.
Columns and labels:
[1] = system: Escherichia coli MG1655 (ATCC 700926); experiment: MIC and MBC by microbroth dilution; assay type: cell-based
Experimental: (§1) No substance was added, in one well, for growth control. A bacterial suspension of 1 × 10^8 CFU/mL was inoculated into all wells of the plate and incubated for 24 h at 37°C. […] The dilutions ranged from 4 to 2000 µg/mL for the substances. The inoculum size was about 2.5×10^3 cells/mL. The plates were incubated at 28°C for 24–48 h. The MIC was determined as the lowest substances' concentration where no visible bacterial or fungal growth was observed. […] Each antimicrobial assay was performed in triplicate.

[2] = system: methicillin resistant S. aureus (MRSA); experiment: MIC and MBC by microbroth dilution; assay type: cell-based; settings: Staphylococcus aureus
Experimental: as §1

[3] = system: C. albicans AIDS 68; experiment: MIC and MFC by microbroth dilution; assay type: cell-based; settings: Candida albicans, AIDS68
Experimental: as §1

[4] = system: C. tropicalis 45,615; experiment: MIC and MFC by microbroth dilution; assay type: cell-based; settings: Candida tropicalis
Experimental: as §1

[5] = system: C. glabrata DSY562; experiment: MIC and MFC by microbroth dilution; assay type: cell-based, Candida glabrata; settings: Nakaseomyces glabratus, DSY562
Experimental: as §1

[6] = system: C. krusei biofilm; experiment: Biofilm biomass by crystal violet (CV) assay; assay type: cell-based, Candida krusei; settings: substance alone at MIC
Experimental: (§2) For all bacterial strains considered in the study, biofilm was performed on a 96‐well plate inoculated with 200 µL of a bacterial suspension 1 × 10^6 CFU/mL and incubated 24 h at 37°C. After incubation for 4 h at 37°C, the medium was aspirated, non‐adherent cells were removed, washed with PBS and added with 200 µL of fresh medium. […] Similarly, to perform fungal biofilm, the different Candida species were grown for 24 h at 28°C on a multi‐wells plate, washed twice with sterile PBS, and then resuspended at 37°C in RPMI 1640 plus 10% FBS at 2.5 × 10^7 cells. After incubation for 3 h at 37°C in six‐well polystyrene plates, the medium was aspirated, non‐adherent cells were removed and washed with PBS.
To quantify bacterial and Candida biofilm biomass, CV, a dye able to color the biofilm matrix, was used. Firstly, after the removal of supernatant and washing with PBS, biofilm was fixed adding 100 µL of 99% methanol for 15 min. Then, methanol was rinsed off and the plates were air‐dried. Subsequently, 100 µL of a 0.1% of CV solution were added to wells and, after 20 min of contact, the plates were washed under running tap water. To dissolve the bounded CV, 150 µL of 33% of glacial acetic acid were added to wells. The absorbance was measured at 590 nm using an automatic microplate reader, Tecan Sunrise (Tecan Group Ltd., Männedorf, Switzerland).

[7] = system: E. coli biofilm; experiment: Biofilm metabolic activity by XTT-reduction assay; assay type: cell-based, Escherichia coli; settings: substance alone at MIC
Experimental: as §2
(§3) The biofilm metabolic activity was evaluated by XTT assay, that highpoints the activity through the reduction of the tetrazolium salt to formazan. After the removal of supernatant and washing with PBS, a solution of XTT‐menadione solution were added to wells. The XTT‐menadione was prepared dissolving XTT powder in prewarmed PBS (37°C) at 0.5 g/L. The solution was sterilized through a 0.22 μm pore size filter. Before each assay, the XTT solution was thawed and supplemented with menadione, a 10 mM stock dissolved in acetone to a final concentration 1 μM. Plates were incubated for 3 h at 37°C in the dark and then the absorbance was measured at 492 nm using the microplate reader, Tecan Sunrise.

[8] = system: ESBL-Ec biofilm; experiment: Biofilm metabolic activity by XTT-reduction assay; assay type: cell-based, Escherichia coli; settings: substance alone at MIC
Experimental: as §2, §3

[9] = system: C. albicans biofilm; experiment: Biofilm metabolic activity by XTT-reduction assay; assay type: cell-based, Candida albicans
Experimental: as §2, §3

[10] = system: C. tropicalis biofilm; experiment: Biofilm metabolic activity by XTT-reduction assay; assay type: cell-based, Candida tropicalis
Experimental: as §2, §3

[11] = biofilm in formation (3 h), substance alone at MIC
[12] = biofilm in formation, sub-MIC concentrations alone or in combination (Table 5), listed as C
[13] = preformed biofilm (24 h), substance alone at MIC
[14] = preformed biofilm, sub-MIC concentrations alone or in combination (Table 5), listed as C

`Cc1ccc(C(C)C)cc1O` [Carvacrol, 2‐methyl‐5‐isopropyl phenol] was tested, and the MBC [1] was 125 µg/mL (≈ 832 µM), the MIC ([1]; 24 h) was 125 µg/mL (≈ 832 µM) and the MBC [2] was 125 µg/mL (≈ 832 µM). The MIC ([2]; 24 h) was 125 µg/mL (≈ 832 µM), the MFC [3] was 500 µg/mL (≈ 3330 µM) and the MIC [3] was 250 µg/mL (≈ 1660 µM). For the same compound, the MFC [4] was 500 µg/mL (≈ 3330 µM), the MIC [4] was 500 µg/mL (≈ 3330 µM) and the MFC [5] was 500 µg/mL (≈ 3330 µM). The MIC [5] was 250 µg/mL (≈ 1660 µM), the “Percentage of biomass reduction” value ([6]; biofilm in formation (3 h)) was 18% and 18.4% and the “Percentage of biomass reduction” value ([6]; preformed biofilm (24 h)) was 39.2%. For the same compound, the “Percentage of metabolic activity reduction” value ([7]; biofilm in formation (4 h)) was 62%, the “Percentage of metabolic activity reduction” value ([7]; preformed biofilm (24 h)) was 28.5% and the “Percentage of metabolic activity reduction” value ([8]; biofilm in formation (4 h)) was 57%. For the same compound, the “Percentage of metabolic activity reduction” value ([8]; preformed biofilm (24 h)) was 22%, the “Percentage of metabolic activity reduction” value [9, 11] was 91% and the “Percentage of metabolic activity reduction” value [9, 12] was 55.1%. For the same compound, the “Percentage of metabolic activity reduction” value [9, 13] was 93%, the “Percentage of metabolic activity reduction” value [9, 14] was 44.9% and the “Percentage of metabolic activity reduction” value [10, 11] was 88.7%. The “Percentage of metabolic activity reduction” value [10, 12] was 35.0%, the “Percentage of metabolic activity reduction” value [10, 13] was 72.8% and the “Percentage of metabolic activity reduction” value [10, 14] was 26.1%.
